Data taken from US9970057B2, “Human invasion signature for prognosis of metastatic risk” (ALBERT EINSTEIN COLLEGE OF MEDICINE, INC., priority 2011, dated 2018).
“Also recorded” adds a separate entry of the source.

How the values were obtained:
MDA-MB-231 xenograft = assay: BrdU incorporation (proliferation marker) in tumors; assay type: in vivo; settings: MDA-MB-231 xenograft mice, acute treatment
Excerpt: FIG. 13A-13C. […] (15A). Schematic of experimental design for the inhibitor treatments. (15B). Representative images of immunostained tumors sections with BrdU antibody (black) and counterstained for nuclei (gray). (15C). Quantification of the above experiments is shown for 3 mice per group, and 10 random 40× images per mouse/tumor (excluding necrotic areas). Bars represent the average percentage of BrdU positive nuclei (black) over total (gray). Error bars: SEM. p-values by Student's t-test.
The inhibitors SB431542 (a small molecule specific inhibitor of the TGFβ receptor), NSC87877 (a small molecule specific inhibitor of PTPN11) were used, and a neutralizing antibody specific to human IL8 for the experiments. Because the focus of the study is migration and invasion, a drug treatment of only 4 hours was given to the mice before experimental assays so that an acute effect on migration can be measured without long-term effects on tumor growth. Invasion was measured by count of the total cells that chemotax and invade in the primary tumor towards a gradient source (EGF or FBS) with the in viva invasion assay. Intravasation and hematogenous dissemination was measured by count of the circulating tumor cells (CTCs) in the blood of tumor-bearing mice. […] No significant difference in overall cell death was observed by histology in the treated tumors with the four-hour acute treatments. […]

[1] = tested on: MDA-MB-231 tumors and patient-derived HT17 and HT39 breast tumors; assay: in vivo invasion assay in tumor-bearing mice; parameters: species or system SCID mice; settings: injected intraperitoneally four hours prior to the experiments; EGF or FBS gradient; MDA-MB-231, HT17 and HT39 tumors; vs vehicle or control IgG
Description: (§1) SB431542 was used, a small molecule specific inhibitor of the TGFβ receptor (14,38), which was injected into the tumor-bearing mice prior to measurements of invasion and intravasation. Invasion was measured by count of the total cells that chemotax and invade in the primary tumor towards a gradient source (EGF or FBS) with the in vivo invasion assay. Intravasation and dissemination was measured by count of the circulating tumor cells in the total blood of tumorbearing mice.
(§2) The inhibitors SB431542 (a small molecule specific inhibitor of the TGFβ receptor), NSC87877 (a small molecule specific inhibitor of PTPN11) were used, and a neutralizing antibody specific to human IL8 for the experiments. Because the focus of the study is migration and invasion, a drug treatment of only 4 hours was given to the mice before experimental assays so that an acute effect on migration can be measured without long-term effects on tumor growth. Invasion was measured by count of the total cells that chemotax and invade in the primary tumor towards a gradient source (EGF or FBS) with the in viva invasion assay. Intravasation and hematogenous dissemination was measured by count of the circulating tumor cells (CTCs) in the blood of tumor-bearing mice. […] No significant difference in overall cell death was observed by histology in the treated tumors with the four-hour acute treatments. […] As a negative control, an inhibitor to a gene was used that was not identified by the HIS, namely, MYC, a known oncogene recently identified as a master regulator of expression in “poor-outcome” cancer signatures. […] Most of the published signatures to date are isolated from whole patient samples, and therefore represent “whole-picture” information about the metastatic process, a summary of invasion, dissemination, and growth/proliferation. […]
(§3) Animal Models. […] The mice were monitored for growth for up to 9 months, at which time if a tumor was not visible they were euthanized. For the tumors that grew, in vivo invasion was measured, and then the tumor was used to passage to new mice (surgical procedure same as before). […]

[2] = tested on: MDA-MB-231 tumors and patient-derived HT17 and HT39 breast tumors; assay: intravasation assay (circulating tumor cells in blood); assay type: in vivo, SCID mice; settings: injected intraperitoneally four hours prior to the experiments; MDA-MB-231, HT17 and HT39 tumors; vs vehicle or control IgG
Description: as §1, §2, §3

Structure (SMILES) | BrdU incorporation (percentage of BrdU positive nuclei; proliferation in vivo) (MDA-MB-231 xenograft) | in vivo invasion (total cells that chemotax and invade in the primary tumor towards a gradient source, cells per microneedle) [1] | intravasation / tumor cell dissemination (circulating tumor cells in blood) [2]
CCc1ccc(/C=C2/SC(=S)NC2=O)cc1 [10058-F4] | significantly reduced; also recorded: significantly inhibits | did not significantly alter | did not significantly alter
O=S(=O)(O)c1ccc2cc(N=Nc3cc(S(=O)(=O)O)c4cccnc4c3O)ccc2c1 [NSC87877, 8-Hydroxy-7-[(6-sulfo-2-naphthyl)azo]-5-quinolinesulfonic acid] | – | significantly abrogated; also recorded: significantly inhibited | significantly abrogated; also recorded: significantly inhibited
NC(=O)c1ccc(-c2nc(-c3ccc4c(c3)OCO4)c(-c3ccccn3)[nH]2)cc1 [SB431542, 4-[4-(1,3-benzodioxol-5-yl)-5-(2-pyridinyl)-1H-imidazol-2-yl]benzamide] | – | effectively abrogate; also recorded: significantly inhibited | effectively abrogate; also recorded: significantly inhibited
